Results reported in US20060100140A1, “Combination of a) n-{5-[4-(4-methyl-piperazino-methyl)-benzoylamido]2-methylphenyl}-4- (3-pyridyl)-2-pyrimidine-amine and b) a histone deacetylase inhibitor for the treatment of leukemia” (priority 2002, published 2006).

What was measured:
[1] = tested on: K562 cells; assay: Apoptosis by morphological analysis of Wright Giemsa-stained cytospin preparations; type: cell-based, human; settings: K562; for effect of caspase inhibitor on Compound I/SAHA-induced apoptosis: Compound I + SAHA with 25 μM inhibitor
Description: (§1) Experimental Format: Logarithmically growing cells are placed in sterile plastic T-flasks (Corning, Corning, N.Y.) to which are added the designated drugs and the flasks replaced in the incubator for intervals. At the end of the incubation period, cells are transferred to sterile centrifuge tubes, pelleted by centrifugation at 400×g for 10 min at room temperature, and prepared for analysis as described below.
(§2) Assessment of Apoptosis: After drug exposures, cytocentrifuge preparations are stained with Wright-Giemsa and viewed by light microscopy to evaluate the extent of apoptosis (i.e., cell shrinkage, nuclear condensation, formation of apoptotic bodies, etc.) as described previously (Yu et al., Nat. Rev. Cancer 1:294-202). For these studies, the percentage of apoptotic cells is determined by evaluating ≧500 cells/condition in triplicate. To confirm the results of morphological analysis, Annexin V/PI staining is used. Annexin V/PI (BD PharMingen, San Diego, Calif.) analysis of cell death is carried out as per the manufacturer's instructions. In studies involving TNF and TNF soluble receptor, both compound are combined and maintained at room temperature 20 min prior to use. For these experiments 1-2×10^5 cells per condition are harvested. Analysis is carried out using a Becton-Dickinson FACScan cytofluorometer (Mansfield, Mass.). To further confirm the morphology results, TUNEL staining is used. For TUNEL staining, cytocentrifuge preparations are obtained and fixed with 4% formaldehyde. The slides are treated with acetic acid/ethanol (1:2), stained with terminal transferase reaction mixture containing 1× terminal transferase reaction buffer (0.25 units/μl terminal transferase, 2.5 mM CoCl2, and 2 pmol fluorescein-12-dUTM; Boehringer Mannheim, Indianapolis, Ind.), and visualized using fluorescence microscopy.

[2] = tested on: LAMA 84 cells; assay: Apoptosis by cytospin slides; type: cell-based, human; settings: Table 6; LAMA 84; 24 hr; sodium butyrate (SB; 1 or 2 mM); Compound I concentration not given
Description: as §1, §2

Row | Compound | effect of caspase inhibitor on Compound I/SAHA-induced apoptosis [1] | Compound I + SB % of apoptotic cells ([1]; Table 6, 24 hr, sodium butyrate (SB; 1 or 2 mM), Compound I concentration not given) [%] | Compound I + SB % of apoptotic cells [2] [%]
1 | IETD-fmk | minimally effective |  | 
2 | COC(=O)CC(NC(=O)OC(C)(C)C)C(=O)CF (stereo not shown) [BOC-fmk] | markedly inhibited apoptosis |  | 
3 | CCCC(=O)[O-].[Na+] [SB, sodium butyrate] |  | 5.1 ± 2.2 | 6.4 ± 2.8
